Data reported in patent US20250194663A1, “ORAL POUCH PRODUCT CONTAINING AMINO ACID OR SALT THEREOF” (Japan Tobacco Inc., priority 2022, published 2025).

Legend:
[1] = cited from earlier work; for pI: amino acid isoelectric point; for pKa (—COOH group) / pKa (—NH3 group): amino acid
[2] = Spectrocolorimeter (CM-5) measurement of samples before and after adsorption and desorption measurement; assay type: physicochemical
Experimental: Changes in the samples between before and after the measurement of the adsorption and desorption isotherms were measured using Konica Minolta, Inc.'s spectrocolorimeter (CM-5). The measurement conditions were reflection measurement and the SCI method, and the measurements were taken with the observation window of a 3-mm φ target mask covered with the glass container after the adsorption and desorption measurement. A blank tube, with no sample placed in it, was also subjected to the measurement, through which a measurement in a transparent state was determined. The measurements are converted values for a 10° field of view and a D65 light source.

[3] = for State of sample after the end of the measurement: FIG. 2, after adsorption and desorption measurement; for Deliquescence: conclusion from isotherm and appearance; for Appearance after storage: tubes tightly closed, stored 9 days at normal temperature after measurement
Experimental: For the measurement, MicrotracBEL (MicrotracBEL Corporation) BELSORP MAX III was used. As a pretreatment of samples, the samples were vacuum-dried at 105° C. until the leakage was 1 Pa/min or less.
The measurement conditions were set as follows. • At relative pressures (humidity levels) from 0.025 to 0.3: measurements are taken at relative pressure intervals of 0.025 • At relative pressures (humidity levels) beyond 0.3 to 0.95: measurements are taken at relative pressure intervals of 0.05
After reaching a relative pressure of 0.95: measurements are taken at equal relative pressure intervals until a relative pressure of 0.1 (For TSP, however, the relative pressure limit was set to approximately 0.5 because measurement accuracy is reduced due to a prolonged measurement time.)
The equilibration conditions were that at relative pressures of 0.9 or lower, pressure changes should be 0.3% or smaller variations over 300 sec, and that at relative pressures of 0.9 or higher, pressure changes should be 0.3 Pa, as a pressure value, or smaller variations over 300 sec.

[4] = 9 days after adsorption and desorption measurement
[5] = after adsorption and desorption measurement
[6] = before adsorption and desorption measurement

N[C@@H](Cc1c[nH]cn1)C(=O)O [Histidine]
pI [1]: 7.59

N[C@@H](Cc1ccc(O)cc1)C(=O)O [Tyrosine]
pI [1]: 5.66

C[C@H](N)C(=O)O [Alanine]
pI [1]: 6
pKa (—COOH group) [1]: 2.34

N[C@@H](CCC(=O)O)C(=O)O [Glutamic acid]
L* (D65) [2, 4]: 53.6
a* (D65) [2, 4]: −0.7
pI [1]: 3.22

NCCCC[C@H](N)C(=O)O [Lysine]
pI [1]: 9.74
pKa (—COOH group) [1]: 2.18

NC(=O)C[C@H](N)C(=O)O [Asparagine]
pI [1]: 5.41
pKa (—COOH group) [1]: 2.02

O=C(O)[C@@H]1C[C@@H](O)CN1 [Hydroxyproline]
pKa (—COOH group) [1]: 1.82
pKa (—NH3 group) [1]: 9.65

O=P([O-])([O-])[O-].[Na+].[Na+].[Na+] [TSP, trisodium phosphate, reference compound]
L* (D65) [2, 5]: 92.4
a* (D65) [2, 5]: −0.1
b* (D65) [2, 5]: 0.1
L* (D65) [2, 6]: 98.5
a* (D65) [2, 6]: 0.0
b* (D65) [2, 6]: 0.5

C[C@@H](O)[C@H](N)C(=O)O [Threonine]
pI [1]: 5.6
pKa (—COOH group) [1]: 2.09

N[C@@H](Cc1ccccc1)C(=O)O [Phenylalanine]
pI [1]: 5.48
pKa (—COOH group) [1]: 1.83
pKa (—NH3 group) [1]: 9.13

N[C@@H](CCC(=O)O)C(=O)[O-].[Na+] [MSG, Na glutamate]
L* (D65) [2, 5]: 33.7
a* (D65) [2, 5]: −0.1
b* (D65) [2, 5]: −0.2
L* (D65) [2, 6]: 84.8
a* (D65) [2, 6]: −0.2
b* (D65) [2, 6]: 1.1
State of sample after the end of the measurement [3]: transitioned to a transparent liquid state
Deliquescence [3]: have deliquescence
Appearance after storage [3]: became a whitened film form

NCC(=O)O [Glycine]
pI [1]: 5.97

CSCC[C@H](N)C(=O)O [Methionine]
pI [1]: 5.74
pKa (—COOH group) [1]: 2.28
pKa (—NH3 group) [1]: 9.21

CC(C)[C@H](N)C(=O)O [Valine]
pI [1]: 5.96
pKa (—NH3 group) [1]: 9.62

N[C@@H](CC(=O)O)C(=O)O [Aspartic acid]
pI [1]: 2.77

O=C(O)[C@@H]1CCCN1 [Proline]
pI [1]: 6.3

N=C(N)NCCC[C@H](N)C(=O)O [Arginine, arginine]
L* (D65) [2, 5]: 94.8
a* (D65) [2, 5]: −0.2
b* (D65) [2, 5]: 0.1
L* (D65) [2, 6]: 99.0
a* (D65) [2, 6]: −0.1
b* (D65) [2, 6]: 0.4
pI [1]: 10.76
pKa (—COOH group) [1]: 2.17

NCCCC(=O)O [GABA, γ-aminobutyric acid]
L* (D65) [2, 4]: 33.1
a* (D65) [2, 4]: −0.3
L* (D65) [2, 5]: 26.5
a* (D65) [2, 5]: −0.3
b* (D65) [2, 5]: −0.9
L* (D65) [2, 6]: 87.1
a* (D65) [2, 6]: −0.1
State of sample after the end of the measurement [3]: transitioned to a transparent liquid state
Deliquescence [3]: have deliquescence
Appearance after storage [3]: maintained the degree of transparency
pI [1]: 7.3
pKa (—COOH group) [1]: 4.23

CC[C@H](C)[C@H](N)C(=O)O [Isoleucine]
pI [1]: 6.02
pKa (—COOH group) [1]: 2.36

O=C1CC[C@@H](C(=O)O)N1 [Pyroglutamic acid]
pI [1]: 5.68

N[C@@H](CO)C(=O)O [Serine]
pI [1]: 5.68

N[C@@H](CS)C(=O)O [Cysteine]
pI [1]: 5.07
pKa (—NH3 group) [1]: 10.28

N[C@@H](Cc1c[nH]c2ccccc12)C(=O)O [Tryptophan]
pI [1]: 5.89
pKa (—COOH group) [1]: 2.83
